Experimental data from US5066580A, “Xanthene dyes that emit to the red of fluorescein” (priority 1990, dated 1991).
Where two headings read alike, the source gives them in different places.

Key:
[1] = Absorbance maximum and extinction coefficient; type: physicochemical; conditions: for red shift of absorbance maxima vs carboxy analogs: compared to carboxy analogs 1, 4 and 7
Procedure: First, the extinction coefficient of compounds 1-9 and 14 was determined. Stock solutions (5×10^-3 M) of each dye were made by dissolving the dye in two equivalents of 0.1 N NaOH and making up the volume with carbonate/bicarbonate buffer (0.16, 0.34 M, pH 9.5). The solution was diluted ([…]) in additional buffer (final pH 9.5-10) and the absorbance spectrum measured. A stock solution (1.2×10^-3 M) of Vita Blue was prepared in DMSO, diluted into citrate buffer (0.1 M, pH 5 2) to give a final concentration of 1.6×10^-5 M and the absorbance spectrum measured. A stock solution (8.2×10^-3 M) of VBDB was prepared in DMSO and diluted into pyrophosphate buffer (0.1 M, pH 7.2) to give a final concentration of 8.1×10^-5 M and the absorbance spectrum measured on a Beckman model DU-6UV visible spectrophotometer.
(§1) Finally, the spectral characteristics of compounds 1-9 was determined. The extinction coefficients and quantum yields or compounds 1-9 were determined at pH 9.5. The extinction coefficient and quantum yield of monoprotonated Vita Blue was also determined at pH 5.2. The extinction coefficient and the quantum yield of VBDB were determined at pH 7.2.

[2] = 470-670 nm (fluorescein), 500-700 nm (eosin), 600-800 nm (allophycocyanin); cited from earlier work
[3] = Fluorescence emission maximum and quantum yield; type: physicochemical; conditions: for red shift of emission maxima vs carboxy analogs: compared to carboxy analogs 1, 4 and 7; for effect of sulfo group on extinction coefficient and quantum yield: compared to carboxy analogs 1 and 7
Procedure: Second, quantum yields of compounds 1-9 and 14 were measured. Solutions (1×10^-6 M) of compounds 1-9 were prepared in carbonate/ bicarbonate buffer (pH 9.5). Fluorescence emission spectra were measured on a Perkin-Elmer MPF-2A fluorescence spectrophotometer in 3-mL disposable plastic cuvettes. The excitation wavelength was set 30 nm to the red of the maximum excitation wavelength and the emission spectra measured. The area under the emission spectrum was measured (F). The quantum yield (.PHI.) was determined using the following equation, F-kIo .PHI.εcb, where F is the fluorescence, k is a fluorimeter constant, Io is the light intensity at the exciting wavelength, ε is the extinction coefficient at the exciting wavelength, c is the concentration of the dye, and b is the pathlength of the cuvette. The value of k was determined for three different emission wavelength regions by using literature values of .PHI. and measuring the fluorescence of fluorescein (470-670 nm, .PHI.=0.92), eosin (500-700 nm, .PHI.=0.19) and allophycocyanin (Applied BioSystems, 600-800 nm, .PHI.=0.68). The value of Io was determined from a table that was generated by scanning the range of exciting wavelengths on the fluorescence spectrophotometer with the emission monochrometer open; a piece of white paper was placed in the sample holder to reflect the exciting light. The concentration of the dyes were 0.6-1.0 uM; this value in each case was below the concentration ([…]) required in order for the equation to be valid.
as §1

[4] = cited from earlier work
[5] = Fluorescence emission spectra of Vita Blue at varying pH; type: physicochemical
Procedure: Fluorescence emission spectra of Vita Blue also was determined. To each of five plastic cuvettes (3 mL) were added one of the following buffered solutions (0.1 M): citrate buffer (pH 4.21), pyrophosphate buffer at three pH values (6.22, 7.21, 9.05), and EPPS buffer (pH 8.37). Vita Blue solution (5 uL, 1.25×10^-3 M) was added, and the fluorescence emission spectra from 450 to 650 nm was measured. The excitation wavelength was 540 nm.

[6] = Absorbance titration of Vita Blue; type: physicochemical
Procedure: Absorbance titration of Vita Blue then was measured. To a plastic cuvette (3 mL) was added the following solutions: citrate buffer (0.1 mL, 0.1 M, pH 4.2), pyrophosphate buffer (0.1 mL, 0.1 M, pH 6.2), EPPS buffer (0.1 mL, 0.1 M, pH 8.4), water (2.6 mL), HCl solution (5 uL, 6 N) and Vita Blue solution (8 or 40 uL, […]). The final concentration of Vita Blue was 3.4×10^-6 or 1.7×10^-5 M. The initial pH was approximately 3. Aliquots of NaOH solution were added (1-3 uL, 4 N) and the pH and the absorbance spectrum from 700 to 400 nm measured.

[7] = system: human white blood cells; experiment: Staining of lysed whole blood, fluorescence by flow cytometry; type: cell-based; conditions: 1 uM dye
Procedure: After characterizing the various xanthene dyes prepared in accordance with this invention, one of the dyes (VBDB) was used to stain cells. The ability of VBDB to stain cells was compared with BCECF-AM, a membrane permeable esterase substrate (Molecular Probes) and fluorescein diacetate (FDA). […] After incubation, the tube was centrifuged. This procedure specifically lyses red blood cells leaving the white cells intact and viable. The supernatant was removed and the white blood cells which remained were washed twice and resuspended in blood cell diluent (1 mL, Diagnostic Technology, Inc.). The cell concentration and the percentage of dead cells were ascertained by counting the cells manually using a fluorescent microscope and a hemacytometer; acridine orange and ethidium bromide were used to stain live and dead cells respectively.
Four samples of approximately 1.7×10^6 cells then were placed in polystyrene tubes. To each tube was added one of the following solutions (1 mL): FDA (1 uM) BCECF-AM (1 uM), VBDB (0.8 uM), or VBDB (8.0 uM). The dye solutions were prepared by diluting a stock solution of each dye (1-8 mM in DMSO) into blood cell diluent. The tubes were kept at room temperature for 30 minutes. The samples were washed three times and resuspended in blood cell diluent (1 mL).
A bandpass 530/30 emission filter was used for both FDA and BCECF-AM, while a bandpass 660/20 emission filter was used for VBDB. Data from 10,000 events were acquired from each of these samples immediately after staining, one hour after staining, and two hours after staining.
Referring to FIG. 2, VBDB, BCECF-AM and FDA were compared as vital dyes by staining lysed whole blood and examining the fluorescence by flow cytometry. […] Four samples of cells were incubated with BCECF AM (1 uM), FDA (1 uM) and VBDB (0.8 uM, 8.0 uM). The cells were analyzed immediately after staining (t=0), after one hour (t=1) and after two hours (t=2).
The data in FIG. 2 also was used to quantitate the "live" cells and the "dead" cells. […] It was assumed the live cells were those cells which retained the dye (the right peak) and that dead cells were those cells whose membranes had become leaky (the left peak). By setting the gate to the immediate left of the main peak, the "dead" cells to the left of the gate were counted.

[8] = pH 5.2 (monoprotonated Vita Blue)

| Molecule | Abs Max ([1]; pH 9.5) [nm] | ε (extinction coefficient) ([1]; pH 9.5) [M⁻¹ cm⁻¹] | EM Max ([3]; pH 9.5) [nm] | Quantum Yield ([3]; pH 9.5, dianionic form) | also measured |
| --- | --- | --- | --- | --- | --- |
| O=c1ccc2c(-c3ccccc3S(=O)(=O)O)c3ccc(O)cc3oc-2c1 [Compound 2, Sulfonefluorescein] | 497 | 78000 | 517 | 0.92 | red shift of absorbance maxima vs carboxy analogs [1]: 6-14 nm; red shift of emission maxima vs carboxy analogs [3]: 1-5 nm; effect of sulfo group on extinction coefficient and quantum yield [3]: little effect |
| CN(C)c1ccc2c(-c3ccccc3C(=O)O)c3ccc(=O)cc-3oc2c1 [Compound 3, Rhodol] | 522 | 57000 | 545 | 0.20 | – |
| O=c1cc2oc3cc(O)c4ccccc4c3c(-c3ccccc3S(=O)(=O)O)c-2c2ccccc12 [Compound 6, 1,2,7,8-Dibenzosulfonefluorescein] | 541 | 81000 | 567 | 0.48 | red shift of absorbance maxima vs carboxy analogs [1]: 6-14 nm; red shift of emission maxima vs carboxy analogs [3]: 1-5 nm; quantum yield vs carboxy analog ([3]; compared to compound 4): twice the quantum yield |
| CC(=O)Oc1ccc2c(c1)Oc1cc(OC(C)=O)ccc1C21OC(=O)c2ccccc21 [FDA, fluorescein diacetate, reference compound] | – | – | – | – | retention of initial fluorescence by stained cells over time [7]: did not retain their initial fluorescence over time |
| O=C1OC2(c3ccccc31)c1cc(Br)c(O)c(Br)c1Oc1c2cc(Br)c(O)c1Br [eosin] | – | – | – | – | quantum yield, literature value [2]: 0.19 |
| allophycocyanin | – | – | – | – | quantum yield, literature value [2]: 0.68 |

Second part, led by results:

| Abs Max ([1]; pH 9.5) [nm] | ε (extinction coefficient) ([1]; pH 9.5) [M⁻¹ cm⁻¹] | EM Max ([3]; pH 9.5) [nm] | Quantum Yield ([3]; pH 9.5, dianionic form) | Molecule | also measured |
| --- | --- | --- | --- | --- | --- |
| 491 | 80000 | 516 | 0.92 | O=C(O)c1ccccc1-c1c2ccc(=O)cc-2oc2cc(O)ccc12 [Compound 1, fluorescein] | quantum yield, literature value [2]: 0.92; Quantum Yield ([4]; background): 0.93; difference of pKa2 and pKa3 ([4]; fluorescein and related compounds): 2.3 units |
| 534 | 81000 | 565 | 0.24 | O=C(O)c1ccccc1-c1c2c3ccccc3c(=O)cc-2oc2cc(O)c3ccccc3c12 [Compound 4, 1,2,7,8 dibenzofluorescein] | – |
| 549 | 24000 | 581 | 0.05 | O=C(O)c1ccccc1-c1c2c3ccccc3c(=O)c(Br)c-2oc2c(Br)c(O)c3ccccc3c12 [Compound 5, 1,2,7,8-Dibenzo-4.5-dibromofluorescein] | excitation maxima compared to parent dyes [1]: at longer wavelengths; extinction coefficient and quantum yield compared to parent dyes [3]: lower than the parent dyes |
| 595 | 44000 | 660 | 0.14 | O=C(O)c1ccccc1-c1c2ccc3cc(O)ccc3c2oc2c1ccc1cc(=O)ccc12 [Compound 7, naphthofluorescein] | – |
| 605 | 32000 | 682 | 0.05 | O=C(O)c1ccccc1-c1c2ccc3c(Br)c(O)ccc3c2oc2c1ccc1c(Br)c(=O)ccc12 [Compound 8, 4,10 Dibromonaphthofluorescein] | – |
| 609 | 36000 | 665 | 0.15 | O=c1ccc2c(ccc3c(-c4ccccc4S(=O)(=O)O)c4ccc5cc(O)ccc5c4oc32)c1 [Compound 9] | excitation maxima compared to parent dyes [1]: at longer wavelengths; red shift of absorbance maxima vs carboxy analogs [1]: 6-14 nm; Abs Max [1, 8]: 524 nm; ε (extinction coefficient) [1, 8]: 13000 M⁻¹ cm⁻¹; isobestic point, emission spectra ([5]; excitation 540 nm, varying pH): 630 nm; dual fluorescence ([5]; mono- and diprotonated forms): showed dual fluorescence; extinction coefficient and quantum yield compared to parent dyes [3]: lower than the parent dyes; separation of emission maxima of monoanionic and dianionic forms [3]: 100 nm; red shift of emission maxima vs carboxy analogs [3]: 1-5 nm; effect of sulfo group on extinction coefficient and quantum yield [3]: little effect; EM Max [3, 8]: 570 nm; Quantum Yield ([3]; pH 5.2, monoanionic form): 0.04; absorbance peak maximum (apparent dimer) ([6]; 1.7×10^-5 M, pH 3.10, 4.06 and 6.45): 600 nm; isobestic point, absorbance titration ([6]; 3.4×10^-6 M): approximately 540 nm |
